Results: patent US9382197B2, “Substituted hydroxamic acids and uses thereof” (Millennium Pharmaceuticals, Inc., priority 2010, dated 2016)

Biological target: T1, purified human HDAC6 (Homo sapiens, UniProt Q9UBN7)
T1 construct: purchased BPS Bioscience 5006
T1 sequence (Q9UBN7 1-1215): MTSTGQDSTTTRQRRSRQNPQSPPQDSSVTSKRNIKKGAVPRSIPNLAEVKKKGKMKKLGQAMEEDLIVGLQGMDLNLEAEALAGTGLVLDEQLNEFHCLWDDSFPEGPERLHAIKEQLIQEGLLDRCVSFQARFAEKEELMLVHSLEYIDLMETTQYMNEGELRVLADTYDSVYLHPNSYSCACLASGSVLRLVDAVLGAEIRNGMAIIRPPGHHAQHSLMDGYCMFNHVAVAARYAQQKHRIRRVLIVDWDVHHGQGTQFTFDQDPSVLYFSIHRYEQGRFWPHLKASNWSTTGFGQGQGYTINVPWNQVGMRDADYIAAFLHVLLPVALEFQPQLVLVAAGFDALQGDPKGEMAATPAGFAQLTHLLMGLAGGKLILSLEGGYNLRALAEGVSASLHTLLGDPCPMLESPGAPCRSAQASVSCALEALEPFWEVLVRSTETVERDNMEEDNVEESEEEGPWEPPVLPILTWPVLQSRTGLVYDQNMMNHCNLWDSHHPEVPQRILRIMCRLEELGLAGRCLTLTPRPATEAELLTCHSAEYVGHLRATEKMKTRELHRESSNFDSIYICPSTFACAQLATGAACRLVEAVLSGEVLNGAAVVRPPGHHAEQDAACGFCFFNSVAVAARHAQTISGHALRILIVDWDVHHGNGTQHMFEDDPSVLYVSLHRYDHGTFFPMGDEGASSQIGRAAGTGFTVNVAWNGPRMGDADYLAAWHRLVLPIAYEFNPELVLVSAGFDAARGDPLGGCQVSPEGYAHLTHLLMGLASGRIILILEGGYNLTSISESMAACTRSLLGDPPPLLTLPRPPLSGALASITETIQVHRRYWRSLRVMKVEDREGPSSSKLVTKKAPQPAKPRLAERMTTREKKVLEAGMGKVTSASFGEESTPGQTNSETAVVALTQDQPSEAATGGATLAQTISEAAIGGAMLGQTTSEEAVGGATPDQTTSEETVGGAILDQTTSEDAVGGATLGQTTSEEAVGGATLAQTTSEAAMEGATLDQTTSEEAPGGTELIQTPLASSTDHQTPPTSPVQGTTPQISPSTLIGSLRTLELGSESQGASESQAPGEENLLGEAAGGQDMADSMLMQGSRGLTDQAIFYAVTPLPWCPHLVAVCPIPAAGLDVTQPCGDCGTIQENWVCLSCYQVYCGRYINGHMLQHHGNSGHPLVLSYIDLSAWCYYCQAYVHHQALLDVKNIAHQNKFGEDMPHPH
Test: HDAC6 Enzyme Assay
Assay type: biochemical
Summary of the method: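 Purified human HDAC6 incubated 1 h at 30 °C with Ac-Arg-Gly-Lys(Ac)-AMC and compound; trichostatin A stop, trypsin release of AMC, fluorescence Ex 340/Em 460 nm. IC50 from concentration–response relative to DMSO.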

[1] = purified human HDAC6, substrate Ac-Arg-Gly-Lys(Ac)-AMC, 1 hour at 30° C., reported as bins
[2] = bin: greater than 500 nM and less than 1 μM (lower bound in nM, upper bound in μM)

IC50 [1]	further results	SMILES
100 to 500 nM		O=C(NO)c1ccc([C@H](NC(=O)C23CC4CC(CC(C4)C2)C3)c2ccccc2)cc1 [Compound I-336, N-[(R)-{4-[(hydroxyamino)carbonyl]phenyl}(phenyl)methyl]adamantane-1-carboxamide]
	IC50 (bin: greater than 1 μM): > 1000 nM	Cn1c(C(=O)NC(c2ccc(C(=O)NO)cc2)C(C)(C)C)cc2oc(-c3ccc(C(C)(C)C)cc3)cc21 (stereo not shown) [Compound I-337, 2-(4-tert-butylphenyl)-N-(1-{4-[(hydroxyamino)carbonyl]phenyl}-2,2-dimethylpropyl)-4-methyl-4H-furo[3,2-b]pyrrole-5-carboxamide]
100 to 500 nM		CC(NS(=O)(=O)Cc1ccccc1)c1ccc(C(=O)NO)cc1 (stereo not shown) [Compound I-338, 4-{1-[(benzylsulfonyl)amino]ethyl}-N-hydroxybenzamide]
	IC50 [2]: 500 to 1000 nM	CC(NC(=O)NC(C)(C)C)c1ccc(C(=O)NO)cc1 (stereo not shown) [Compound I-339, 4-(1-{[(tert-butylamino)carbonyl]amino}ethyl)-N-hydroxybenzamide]
< 100 nM		CC(C)[C@@H](NC(=O)c1ccc(-c2ccccc2)cc1)c1ccc(C(=O)NO)cc1 [Compound I-341, N-((1R)-1-{4-[(hydroxyamino)carbonyl]phenyl}-2-methylpropyl)biphenyl-4-carboxamide]
100 to 500 nM		Cc1ccc2[nH]c(C(=O)NC(C)c3cccc(C(=O)NO)c3)cc2c1 (stereo not shown) [Compound I-342, N-(1-{3-[(hydroxyamino)carbonyl]phenyl}ethyl)-5-methyl-1H-indole-2-carboxamide]
	IC50 (bin: greater than 1 μM): > 1000 nM	C[C@@H](NC(=O)NC12CC3CC(CC(C3)C1)C2)c1cccc(C(=O)NO)c1 [Compound I-343, 3-[(1R)-1-({[1-adamantylamino]carbonyl}amino)ethyl]-N-hydroxybenzamide]
100 to 500 nM		CC(C)C(NC(=O)C1CCCCC1)c1ccc(C(=O)NO)cc1 (stereo not shown) [Compound I-344, 4-{1-[(cyclohexylcarbonyl)amino]-2-methylpropyl}-N-hydroxybenzamide]
	IC50 (bin: greater than 1 μM): > 1000 nM	CC(C)(C)C(NC(=O)Cc1csc2ccc(Cl)cc12)c1ccc(C(=O)NO)cc1 (stereo not shown) [Compound I-345, 4-(1-{[(5-chloro-1-benzothien-3-yl)acetyl]amino}-2,2-dimethylpropyl)-N-hydroxybenzamide]
< 100 nM		COc1ccc(C(=O)NC(c2ccc(C(=O)NO)cc2)C(C)C)cc1 (stereo not shown) [Compound I-346, N-(1-{4-[(hydroxyamino)carbonyl]phenyl}-2-methylpropyl)-4-methoxybenzamide]
< 100 nM		CC(NC(=O)C1CC=CCC1)c1ccc(C(=O)NO)cc1 (stereo not shown) [Compound I-348, 4-{1-[(cyclohex-3-en-1-ylcarbonyl)amino]ethyl}-N-hydroxybenzamide]
< 100 nM		CC(NC(=O)c1ccc2occc2c1)c1ccc(C(=O)NO)cc1 (stereo not shown) [Compound I-349, N-(1-{4-[(hydroxyamino)carbonyl]phenyl}ethyl)-1-benzofuran-5-carboxamide]
< 100 nM		CC(NC(=O)c1ccc(C(C)(C)C)cc1)c1ccc(C(=O)NO)cc1 (stereo not shown) [Compound I-350, 4-tert-butyl-N-(1-{4-[(hydroxyamino)carbonyl]phenyl}ethyl)benzamide]
	IC50 [2]: 500 to 1000 nM	C[C@@H](NS(=O)(=O)c1ccc(C(F)(F)F)cc1)c1ccc(C(=O)NO)cc1 [Compound I-351, N-hydroxy-4-[(1R)-1-({[4-(trifluoromethyl)phenyl]sulfonyl}amino)ethyl]benzamide]
100 to 500 nM		COc1ccc(C(=O)NC(c2ccc(C(=O)NO)cc2)C(C)(C)C)cc1 (stereo not shown) [Compound I-352, N-(1-{4-[(hydroxyamino)carbonyl]phenyl}-2,2-dimethylpropyl)-4-methoxybenzamide]
100 to 500 nM		CC(NC(=O)c1cn(C)c2ccccc12)c1cccc(C(=O)NO)c1 (stereo not shown) [Compound I-353, N-(1-{3-[(hydroxyamino)carbonyl]phenyl}ethyl)-1-methyl-1H-indole-3-carboxamide]
< 100 nM		CC(C)[C@@H](NC(=O)NC12CC3CC(CC(C3)C1)C2)c1ccc(C(=O)NO)cc1 [Compound I-354, 4-[(1R)-1-({[1-adamantylamino]carbonyl}amino)-2-methylpropyl]-N-hydroxybenzamide]

IC50 [1]	further results	SMILES
100 to 500 nM		CC(C)(C)C(NC(=O)c1ccc(-c2ccccc2)cc1)c1ccc(C(=O)NO)cc1 (stereo not shown) [Compound I-355, N-(1-{4-[(hydroxyamino)carbonyl]phenyl}-2,2-dimethylpropyl)biphenyl-4-carboxamide]
< 100 nM		CC(NC(=O)c1cccn1C)c1ccc(C(=O)NO)cc1 (stereo not shown) [Compound I-356, N-(1-{4-[(hydroxyamino)carbonyl]phenyl}ethyl)-1-methyl-1H-pyrrole-2-carboxamide]
< 100 nM		CC(NC(=O)CC1Cc2ccccc2C1)c1ccc(C(=O)NO)cc1 (stereo not shown) [Compound I-357, 4-{1-[(2,3-dihydro-1H-inden-2-ylacetyl)amino]ethyl}-N-hydroxybenzamide]
< 100 nM		CC(=O)c1cccc(NC(=O)NC(C)c2ccc(C(=O)NO)cc2)c1 (stereo not shown) [Compound I-358, 4-[1-({[(3-acetylphenyl)amino]carbonyl}amino)ethyl]-N-hydroxybenzamide]
< 100 nM		C[C@@H](NC(=O)c1cc(Cl)c(Cl)n1C)c1ccc(C(=O)NO)cc1 [Compound I-359, 4,5-dichloro-N-((1R)-1-{4-[(hydroxyamino)carbonyl]phenyl}ethyl)-1-methyl-1H-pyrrole-2-carboxamide]
< 100 nM		CC(NC(=O)c1ccc2ncsc2c1)c1ccc(C(=O)NO)cc1 (stereo not shown) [Compound I-360, N-(1-{4-[(hydroxyamino)carbonyl]phenyl}ethyl)-1,3-benzothiazole-6-carboxamide]
	IC50 (bin: greater than 1 μM): > 1000 nM	CC(NC(=O)Cc1cc(C(F)(F)F)cc(C(F)(F)F)c1)c1cccc(C(=O)NO)c1 (stereo not shown) [Compound I-362, 3-[1-({[3,5-bis(trifluoromethyl)phenyl]acetyl}amino)ethyl]-N-hydroxybenzamide]
100 to 500 nM		CC(NS(=O)(=O)c1cccc2cccnc12)c1ccc(C(=O)NO)cc1 (stereo not shown) [Compound I-363, N-hydroxy-4-{1-[(quinolin-8-ylsulfonyl)amino]ethyl}benzamide]
100 to 500 nM		Cn1c(C(=O)NC(c2ccc(C(=O)NO)cc2)C(C)(C)C)cc2ccccc21 (stereo not shown) [Compound I-364, N-(1-{4-[(hydroxyamino)carbonyl]phenyl}-2,2-dimethylpropyl)-1-methyl-1H-indole-2-carboxamide]
< 100 nM		CCC[C@@H](NC(=O)C(C)(C)C)c1ccc(C(=O)NO)cc1 [Compound I-365, 4-{(1R)-1-[(2,2-dimethylpropanoyl)amino]butyl}-N-hydroxybenzamide]
	IC50 (bin: greater than 1 μM): > 1000 nM	CC(NC(=O)c1c(Cl)cccc1Cl)c1cccc(C(=O)NO)c1 (stereo not shown) [Compound I-366, 2,6-dichloro-N-(1-{3-[(hydroxyamino)carbonyl]phenyl}ethyl)benzamide]
< 100 nM		CCC[C@@H](NC(=O)c1oc2ccccc2c1C)c1ccc(C(=O)NO)cc1 [Compound I-367, N-((1R)-1-{4-[(hydroxyamino)carbonyl]phenyl}butyl)-3-methyl-1-benzofuran-2-carboxamide]
100 to 500 nM		CC(C)[C@@H](NC(=O)NC(C)(C)C)c1ccc(C(=O)NO)cc1 [Compound I-368, 4-((1R)-1-{[(tert-butylamino)carbonyl]amino}-2-methylpropyl)-N-hydroxybenzamide]
100 to 500 nM		CC(NS(=O)(=O)c1cc2ccccc2s1)c1ccc(C(=O)NO)cc1 (stereo not shown) [Compound I-369, 4-{1-[(1-benzothien-2-ylsulfonyl)amino]ethyl}-N-hydroxybenzamide]
	IC50 (bin: greater than 1 μM): > 1000 nM	CC(NC(=O)CC1CCCC1)c1ccc(C(=O)NO)cc1 (stereo not shown) [Compound I-370, 4-{1-[(cyclopentylacetyl)amino]ethyl}-N-hydroxybenzamide]
< 100 nM		CC(NC(=O)Nc1cccc(C(F)(F)F)c1)c1ccc(C(=O)NO)cc1 (stereo not shown) [Compound I-371, N-hydroxy-4-{1-[({[3-(trifluoromethyl)phenyl]amino}carbonyl)amino]ethyl}benzamide]
100 to 500 nM		CC(NC(=O)C1C(C)(C)C1(C)C)c1ccc(C(=O)NO)cc1 (stereo not shown) [Compound I-372, N-hydroxy-4-(1-{[(2,2,3,3-tetramethylcyclopropyl)carbonyl]amino}ethyl)benzamide]
